These are literature values, as cited in patent EP0176772A1, “Process for sustaining the release of vitamins C and E” (RODISMA Pharmazeutische Produkte GmbH, priority 1984, dated 1986).

Like-named read-outs stand apart in the source and are kept apart here.

Assay in data set [1]: not given
This is another data set of the same source.

With Vitamin E, under “human, in vivo, po”, the “Maximum (plasma vitamin E), time of” value is 7 Stunden.

Take `Cc1c(C)c2c(c(C)c1O)CCC(C)(CCCC(C)CCCC(C)CCCC(C)C)O2` [D-alpha-Tocopherol]: under “orale Verabreichung von 600 mg an eine Versuchsperson (Hashim und Schuttringer)”, the “maximale Plasmaspiegel, time of” value is reported as about 7 Stunden. Besides, for the setting “orale Verabreichung von (Hashim und Schuttringer)”, the “Maximum der Plasma-Tocopherol-Konzentration, time of” value is 7 Stunden.

As for `O=C1O[C@H]([C@@H](O)CO)C(O)=C1O` [Vitamin C, Ascorbinsäure], in data set [1] (Einzeldosen bis 180 mg, dosisproportional (Kübler und Gehler)), the Resorption is about 70%. Besides, the resorbiert is reported as 75% in data set [1] (Einzeldosis von 1 g, 3-Kompartiment-Modell (Hornig und Moser)) and 16% in data set [1] (orale Ascorbinsäurebelastung mit 12 g).
